Source: patent US20020111356A1, “Arylalkylpyridazinones” (MERCK KGAA, priority 1995, published 2002)

Structure (SMILES): COc1ccc(C2=NN(Cc3ccc([N+](=O)[O-])cc3)C(=O)CC2)cc1OC [Example 1, 2-(4-Nitrobenzyl)-6-(3,4-dimethoxyphenyl) -2,3,4,5-tetrahydropyridazin-3-one]
- melting point: 126 °C
